The values below come from the OPERA property sets (Mansouri et al. 2018).

For orientation: logP means a log measure of how a compound divides between an organic and an aqueous phase.

Turning to `NC(=O)c1cccc(S(N)(=O)=O)c1`, the logP was -0.84. With `NC(=O)c1ccc(S(N)(=O)=O)cc1`, the logP was -0.83. For `CCCCCCOc1ccc(S(N)(=O)=O)cc1[N+](=O)[O-]` the value was 2.99. As to `NS(=O)(=O)c1cccc(Br)c1`, the logP came out at 1.35. `COc1cccc(S(N)(=O)=O)c1` displayed a logP of 0.53.

`NS(=O)(=O)c1ccc(-c2ccccc2)cc1` showed a logP of 2.24.

`CS(=O)(=O)Nc1ccc(S(N)(=O)=O)cc1`: the lipophilicity (logP) is -0.4. Take `NS(=O)(=O)c1cccc(I)c1`: the logP stood at 1.58. As for `CCCCOc1ccc(S(N)(=O)=O)cc1`, the logP worked out at 2.05.

`CC(=O)c1cccc(S(N)(=O)=O)c1`: the logP worked out at 0.21. `CC(=O)Nc1ccc(S(N)(=O)=O)cc1` came in with a logP of -0.04. Take `CCCCOc1cccc(S(N)(=O)=O)c1`: the logP stood at 2.06. Turning to `N#Cc1cccc(S(N)(=O)=O)c1`, the lipophilicity (logP) was found to be 0.24.
